Columns and labels:
[1] = Protection from simulated gastric digestion in vitro (pepsin, pancreatin): viability by CFU plating and live/dead flow cytometry; conditions: for slope of regression plot of viability with SIgA association: post-digestion; for Slope (CFU/% SIgA): regression of viable CFU post-digestion on SIgA association
Protocol: Flow cytometry and immunofluorescence: To measure binding cells were fixed using 4% w/v paraformaldehyde for 30 min, washed with PBS, then incubated with 1% bovine serum albumin (BSA) blocking buffer for 1 h. Cells were stained with 1/100 dilution SYTOT™ 9 (S34854, ThermoFisher) for live cells and goat anti-human IgA conjugated to Alexa 647 fluorophore using 1/50 dilution in 1% BSA (ab96998, Abcam). For flow cytometry, all samples were acquired and analyzed on a FACScan flow cytometer (BD Biosciences, Mountain View, Calif.) using the CellQuest software program. For live/dead analyses following in vitro digestion, cells were stained with SYTOT™ 9 (1/100 dilution) for live cells and propidium iodine (1/1000 dilution) for dead cells or cells with compromised membranes.
Protection from digestion using an in vitro model. To determine the extent to which the SIgA-glycan-mediated-bacterial complexes that included the Ig-bound secretory component (SC) where able to protect bacteria and SIgA from proteolytic degradation, an in vitro model was used. Simulated gastric digestion was performed by resuspending bacteria in 200 ul of 0.1% porcine pepsin (Sigma—Aldrich, St. Louis, Mo.) in PBS at pH 4. Samples were placed in an incubating shaker (New Brunswick Scientific, Edison, N.J.) at 140 rpm at 37° C. for 15 min. Cells were then pelleted and resuspended in 200 ul of 0.04% pancreatin (Sigma— Aldrich) in PBS pH 7, and the samples placed in the incubator shaker at 140 rpm at 37° C. for 5 min. Bacteria were pelleted and washed twice with PBS to remove residual enzymes, then evaluated for viability through CFU serial dilution and spot plating, and with live/dead flow cytometry analysis.

[2] = tested on: colonocytes (Caco-2 / HT29-MTX E12 co-culture); test: Colonocyte barrier function and immune gene expression (RT-qPCR); type: cell-based, human; conditions: for change of IL-8 expression when SIgA is first complexed to the bacteria / change of JAM expression when SIgA is first complexed: SIgA-complexed vs bacteria alone
Protocol: Mammalian cell culture binding assays: Caco-2 colonic cells were co-cultured with HT29-MTX E12 cells at a ratio of 3:1 and seeded at a density of 5×10^4 cells/well in 24-well plates, maintained as described above. On day 1 post-confluence, medium was removed, the cells washed once with PBS, and DMEM without FBS or antibiotics was added prior to binding assay. Bacteria were prepared as described above, with or without SIgA and resuspended in PBS at 1×10^7 CFU/mL. 4×10^5 CFU were added to the colonocytes and the plate was centrifuged at 600×g for 5 min to ensure bacteria association with the cells. After 2 h of incubation at 37° C. in 5% CO2, medium was removed and saved for cytokine analysis. Cells were washed once with PBS, and to one set of replicates, cells were lysed with 0.5% Triton X-100 and serial dilutions of the cell suspensions were plated on MRS and incubated anaerobically at 37° C. overnight to test viability. To a second set of replicates, TRIzol (15596018; Life Technologies) was added directly to washed cells for RNA extraction.
Mammalian cell culture RT-qPCR for gene expression: Total RNA from mammalian co-culture samples were extracted via the TRIzol method. Total RNA (1 μg) was treated with Turbo DNAse (EN0521; Thermo Fisher) to remove genomic DNA, then used for reverse transcription producing cDNA, performed according to manufacturer protocol (High Capacity Complementary DNA Reverse Transcription Kit; Applied Biosystems). Gene list and primer sequences can be found in Table 2. Real-time PCR was performed with the Quantistudio 3 qPCR thermocycler (Applied Biosystems) using SyberGreen master mix (Life Technologies). Actin and GADPH were used as house-keeping genes. Analysis was performed using Quantistudio Design and Analysis Software v.1.4.3.

[3] = BLI persistence / colonization in mice (feces); type: in vivo, BALBc mice
Protocol: Mice: 6-week old female BALBc mice were purchased from The Jackson Labs. Mice were housed in an American Association for the Accreditation of Laboratory Animal Care-accredited facility, and procedures were conducted in compliance with the University of California Institutional Animal Care and Use Committee. Mice were co-housed 5 mice per cage in the Training and Research Animal Care Services vivarium at the University of California, Davis under conventional conditions with free access to standard chow RM1P (801151, Special Diet Services, Witham, England) and sterilized tap water with or without 2′FL. Mice were acclimated for 1 week prior to treatment. Mice were euthanized by decapitation following deep anesthesia with 100 mg/kg ketamine and 10 mg/kg xylazine administered by intraperitoneal injection.
Tissue Collection: Fecal samples were collected aseptically every 2 days for BLI detection. During necropsy, segments of duodenum, ileum, and colon were sectioned. First, Peyer's patches (PP) were collected and stored in 200 μL PBS in bead-beating tubes for homogenization and plating on blue/white screening agar. Duodenum, ileum, colon and cecum contents were collected into sterile tubes for bacterial analysis.
Bacterial plating and counting: PP, luminal contents and fecal samples were subjected to bead beating for 60 s at 4 m/s using a FastPrep homogenizer and 2 mm zirconium ceramic beads. Homogenate was serially diluted and plated on LB agar with kanamycin, x-gal and IPTG (blue-white screening agar) for differentiating JS107 and SJF10 strains, or further processed for DNA extraction and RT-qPCR for quantitation of BLI. […]
Strain-Specific qPCR: BLI was detected in fecal samples and intestinal contents following DNA extraction as described in Frese et al.^15 using the following primers: BLON0915F 5′[…]3′ and BLON0915R 5′ […]3′. […]

[4] = tested on: pooled human milk SIgA; test: Binding of SIgA to bacteria by flow cytometry; conditions: 100 μg SIgA to 1e6 cfu bacteria
[5] = colonocytes, listed as B. infantis

Substance: Bifidobacterium longum ssp. infantis ATCC 15697
- viable bacteria post-digestion ([1]; grown on LNnT, 1000 μg SIgA/1e7 CFU): 1.3e5 CFU
- viable bacteria post-digestion ([1]; grown on LNnT, no SIgA): 1.2e4 CFU
- viable bacteria post-digestion ([1]; grown on glucose, 1000 μg SIgA/1e7 CFU): 8.9e5 CFU
- viable bacteria post-digestion ([1]; grown on glucose, no SIgA): 1e5 CFU
- slope of regression plot of viability with SIgA association ([1]; grown on LNnT): 1.2e3 CFU per % population SIgA association
- slope of regression plot of viability with SIgA association ([1]; grown on glucose): 8.2e4 CFU per % population SIgA association
- Slope (CFU/% SIgA) ([1]; substrate 2′FL): 410.1 CFU/% SIgA
- Slope (CFU/% SIgA) ([1]; substrate LNnT): 1214 CFU/% SIgA
- Slope (CFU/% SIgA) ([1]; substrate glucose): 8970 CFU/% SIgA
- Slope (CFU/% SIgA) ([1]; substrate lactose): 76377 CFU/% SIgA
- change of barrier gene MUCSAC expression when SIgA is first complexed ([2]; colonocytes, 1000 μg SIgA per 1e7 CFU): decreased
- change of IL-8 expression when SIgA is first complexed to the bacteria [2, 5]: reduces the expression
- change of JAM expression when SIgA is first complexed [2, 5]: increasing the expression
- change of IL-8 expression when SIgA is first complexed to the bacteria ([2]; colonocytes, listed as BLI): increased
- change of JAM expression when SIgA is first complexed ([2]; colonocytes, listed as BLI): decreased
- change of Claudin 1 expression with SIgA association ([2]; mammalian colonocytes): increasing the expression
- change of Occludin expression with SIgA association ([2]; mammalian colonocytes): increasing the expression
- increase of colonization in the gastrointestinal tract with SIgA association ([3]; 5-6 week old BALBc mice fed water): 4 log-scale
- increase of colonization in the gastrointestinal tract with SIgA association ([3]; mice supplemented with an HMO (10% 2′ fucosyllactose)): 5 log-scale
- higher concentration in feces when pre-incubated with milk SIgA ([3]; one day post oral administration, vs not pre-incubated): 10 ×
- ability to bind to pooled human milk SIgA [4]: 92.4%
- increase in SIgA binding when first grown on an HMO substrate ([4]; HMO-grown): 4.8%
